These compounds were tested against T1, human PDE4B1 (Homo sapiens, UniProt Q07343) (assay: cAMP HTRF assay to determine the activity of hPDE4B1). Conditions: inhibition of PDE4B at a test concentration of 1 μM.
T1 construct: host or cells: Sf9 cells
T1 sequence (Q07343 whole entry): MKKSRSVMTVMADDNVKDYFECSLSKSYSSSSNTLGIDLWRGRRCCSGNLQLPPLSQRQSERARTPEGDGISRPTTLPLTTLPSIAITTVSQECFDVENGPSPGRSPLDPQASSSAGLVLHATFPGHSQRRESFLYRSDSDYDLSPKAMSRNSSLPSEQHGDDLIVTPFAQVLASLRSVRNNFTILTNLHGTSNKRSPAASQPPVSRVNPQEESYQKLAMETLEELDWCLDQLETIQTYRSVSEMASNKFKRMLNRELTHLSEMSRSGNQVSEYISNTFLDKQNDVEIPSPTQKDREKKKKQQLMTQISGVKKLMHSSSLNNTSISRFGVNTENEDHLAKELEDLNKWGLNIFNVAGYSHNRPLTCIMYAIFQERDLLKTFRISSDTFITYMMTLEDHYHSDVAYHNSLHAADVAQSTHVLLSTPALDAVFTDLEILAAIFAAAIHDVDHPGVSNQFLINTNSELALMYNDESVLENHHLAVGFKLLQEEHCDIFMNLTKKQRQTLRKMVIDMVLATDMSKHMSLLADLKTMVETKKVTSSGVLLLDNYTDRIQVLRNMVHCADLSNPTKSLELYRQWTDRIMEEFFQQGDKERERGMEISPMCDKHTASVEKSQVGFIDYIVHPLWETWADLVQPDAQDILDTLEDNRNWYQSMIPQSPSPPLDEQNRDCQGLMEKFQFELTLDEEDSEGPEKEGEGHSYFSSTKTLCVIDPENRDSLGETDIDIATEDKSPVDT
Type: biochemical
Procedure, shortened: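 […], using HTRF quantitation of residual cAMP after 1 mM IBMX stop and 60 min detection. Enzyme was Sf9-expressed human PDE4B1 incubated 30 min at room temperature with 40 nM final cAMP at pH 7.8.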
COCCN1CCN(C(=O)c2ccc3c([S+](C)[O-])cn(-c4ncc(-c5ccccc5F)cn4)c3c2)CC1 (stereo not shown) [Example 392, (1-(5-(2-Fluorophenyl)pyrimidin-2-yl)-3-(methylsulfinyl)-1H-indol-6-yl)(4-(2-methoxyethyl)piperazin-1-yl)methanone] was tested, and the inhibition at 1 µM was 0%. For CCOC(=O)C1CCN(C(=O)c2ccc3c([S+](C)[O-])cn(-c4ncc(-c5ccccc5F)cn4)c3c2)CC1 (stereo not shown) [Example 393, Ethyl 1-(1-(5-(2-fluorophenyl)pyrimidin-2-yl)-3-(methylsulfinyl)-1H-indole-6-carbonyl)piperidine-4-carboxylate], the inhibition at 1 µM was 10%. CCOC(=O)N1CCN(C(=O)c2ccc3c([S+](C)[O-])cn(-c4ncc(-c5ccccc5F)cn4)c3c2)CC1 (stereo not shown) [Example 394, Ethyl 4-(1-(5-(2-fluorophenyl)pyrimidin-2-yl)-3-(methylsulfinyl)-1H-indole-6-carbonyl)piperazine-1-carboxylat] showed an inhibition at 1 µM of 0%. In the case of CN(C)C(=O)CN1CCN(C(=O)c2ccc3c([S+](C)[O-])cn(-c4ncc(-c5ccccc5F)cn4)c3c2)CC1 (stereo not shown) [Example 395, 2-(4-(1-(5-(2-Fluorophenyl)pyrimidin-2-yl)-3-(methylsulfinyl)-1H-indole-6-carbonyl)piperazin-1-yl)-N,N-dimethylacetamide], the inhibition at 1 µM is reported as 0%.

Each compound was assayed against T1, human PDE4B1 (assay: TR-FRET assay using the LANCE Ultra cAMP kit to determine the activity of hPDE4B1). Conditions: test concentration 1 μM, 1 µM.
Type: biochemical
From the text: TR-FRET Assay Using the LANCE® Ultra cAMP Kit to Determine the Activity of hPDE4B1
The effects of the compounds on the activity of the human PDE4B1 was quantified by measuring the production of 5′AMP from cAMP using a human recombinant enzyme expressed in Sf9 cells and the LANCE® Ultra cAMP kit, a TR-FRET detection method from PerkinElmer. The human PDE4B1 enzyme was purchased from SignalChem Lifesciences (Catalog# P92-31BG, Lot# H296-2).
The test compound, reference compound or water (control) was mixed with the enzyme (0.96 U) in a reaction buffer containing 50 mM Tris-HCl, 50 mM MgCl2 and 5 mM DTT (pH 8.5). Thereafter, the reaction was initiated by addition of 500 nM cAMP (substrate) and the mixture was incubated for 30 minutes at room temperature. For control basal measurements, the enzyme was omitted from the reaction mixture. After 30 minutes, the reaction was stopped and diluted by a factor of 100 with the reaction buffer supplemented with 500 μM IBMX. The fluorescence donor (europium chelate-labeled cAMP) and the fluorescence acceptor (anti-cAMP antibody labeled with the ULight™ dye) were then added together with 500 μM IBMX to a 10 μl aliquot. After 60 minutes, the fluorescence transfer corresponding to the amount of residual cAMP was measured at λex=337 nm, λem=620 nm and λem=665 nm using a microplate reader (PHERAstar, BMG). The enzyme activity was determined by dividing the signal measured at 665 nm by that measured at 620 nm (ratio) multiplied by 10000. The results were expressed as percent inhibition of the control enzyme activity. IC50 values (IC50=concentration causing a half-maximal inhibition of control specific activity) were derived from dose response measurements with ten different concentrations (n=3; N=1-3).
Cc1ccnc(-c2cnc(-n3cc([S+](C)[O-])c4ccc(C(=O)N5CCOCC5)cc43)nc2)c1 (single isomer, unassigned) [Example 352, (1-(5-(4-Methylpyridin-2-yl)pyrimidin-2-yl)-3-(methylsulfinyl)-1H-indol-6-yl)(morpholino)methanone] was tested, and the “Inhibition in % (inhibition of PDE4B)” value was 95%.

Same assay, conditions: test concentration 1 μM, read-out: Inhibition in % (inhibition of PDE4B)
In the case of Cc1ccnc(-c2cnc(-n3cc([S+](C)[O-])c4ccc(C(=O)N5CCOCC5)cc43)nc2)c1 (single isomer, unassigned) [Example 351, (1-(5-(4-Methylpyridin-2-yl)pyrimidin-2-yl)-3-(methylsulfinyl)-1H-indol-6-yl)(morpholino)methanone], the inhibition at 1 µM is reported as 93%. CSc1cn(-c2ncc(-c3ccccc3F)cn2)c2cc(C(=O)N3CCOCC3)ccc12 [Example 1d, (1-(5-(2-Fluorophenyl)pyrimidin-2-yl)-3-(methylthio)-1H-indol-6-yl)(morpholino)methanone] showed an inhibition at 1 µM of 89%. For C[S+]([O-])c1cn(-c2ncc(-c3ccccc3F)cn2)c2cc(C(=O)N3CC4CNCC4C3)ccc12 (stereo not shown) [Example 222, (1-(5-(2-Fluorophenyl)pyrimidin-2-yl)-3-(methylsulfinyl)-1H-indol-6-yl)(hexahydropyrrolo[3,4-c]pyrrol-2(1H)-yl)methanone], the inhibition at 1 µM was 73%. Compound Cc1ccnc(-c2cnc(-n3cc([S+](C)[O-])c4ccc(C(=O)N5C[C@@H]6C[C@H]5CN6)cc43)nc2)c1 (stereo partly drawn) [Example 245, (1S,4S)-2,5-Diazabicyclo[2.2.1]heptan-2-yl(1-(5-(4-methylpyridin-2-yl)pyrimidin-2-yl)-3-(methylsulfinyl)-1H-indol-6-yl)methanone] has an inhibition at 1 µM of 86%. CCc1ccnc(-c2cnc(-n3cc([S+](C)[O-])c4ccc(C(=O)N5C[C@@H]6C[C@H]5CN6)cc43)nc2)c1 (stereo partly drawn) [Example 246, (1S,4S)-2,5-Diazabicyclo[2.2.1]heptan-2-yl(1-(5-(4-ethylpyridin-2-yl)pyrimidin-2-yl)-3-(methylsulfinyl)-1H-indol-6-yl)methanone] showed an inhibition at 1 µM of 96%. For Cc1cccc(-c2cnc(-n3cc([S+](C)[O-])c4ccc(C(=O)N5C[C@@H]6C[C@H]5CN6)cc43)nc2)n1 (stereo partly drawn) [Example 247, (1S,4S)-2,5-Diazabicyclo[2.2.1]heptan-2-yl(1-(5-(6-methylpyridin-2-yl)pyrimidin-2-yl)-3-(methylsulfinyl)-1H-indol-6-yl)methanone], the inhibition at 1 µM was 90%. Work on CN(C)c1ccnc(-c2cnc(-n3cc([S+](C)[O-])c4ccc(C(=O)N5C[C@@H]6C[C@H]5CN6)cc43)nc2)c1 (stereo partly drawn) [Example 248, (1S,4S)-2,5-Diazabicyclo[2.2.1]heptan-2-yl(1-(5-(4-(dimethylamino)pyridin-2-yl)pyrimidin-2-yl)-3-(methylsulfinyl)-1H-indol-6-yl)methanone] yielded an inhibition at 1 µM of 97%. Cc1ccc(F)c(-c2cnc(-n3cc([S+](C)[O-])c4ccc(C(=O)N5C[C@@H]6C[C@H]5CN6)cc43)nc2)c1 (stereo partly drawn) [Example 249, (1S,4S)-2,5-Diazabicyclo[2.2.1]heptan-2-yl(1-(5-(2-fluoro-5-methylphenyl)pyrimidin-2-yl)-3-(methylsulfinyl)-1H-indol-6-yl)methanone] gave an inhibition at 1 µM of 93%. Work on CC(C)c1ccnc(-c2cnc(-n3cc([S+](C)[O-])c4ccc(C(=O)N5CCOCC5)cc43)nc2)c1 (stereo not shown) [Example 256, (1-(5-(4-Isopropylpyridin-2-yl)pyrimidin-2-yl)-3-(methylsulfinyl)-1H-indol-6-yl)(morpholino)methanone] yielded an inhibition at 1 µM of 96%. In the case of CC#Cc1ccnc(-c2cnc(-n3cc([S+](C)[O-])c4ccc(C(=O)N5CCOCC5)cc43)nc2)c1 (stereo not shown) [Example 257, (3-(Methylsulfinyl)-1-(5-(4-(prop-1-yn-1-yl)pyridin-2-yl)pyrimidin-2-yl)-1H-indol-6-yl)(morpholino)methanone], the inhibition at 1 µM is reported as 93%. Compound C[S+]([O-])c1cn(-c2ncc(-c3cc(C4CC4)ccn3)cn2)c2cc(C(=O)N3CCOCC3)ccc12 (stereo not shown) [Example 258, (1-(5-(4-Cyclopropylpyridin-2-yl)pyrimidin-2-yl)-3-(methylsulfinyl)-1H-indol-6-yl)(morpholino)methanone] has an inhibition at 1 µM of 92%. With CCc1ccnc(-c2cnc(-n3cc([S+](C)[O-])c4ccc(C(=O)N5CCOCC5)cc43)nc2)c1 (stereo not shown) [Example 259] the inhibition at 1 µM was 95%. CCOc1ccnc(-c2cnc(-n3cc([S+](C)[O-])c4ccc(C(=O)N5CCOCC5)cc43)nc2)c1 (stereo not shown) [Example 260, (1-(5-(4-Ethoxypyridin-2-yl)pyrimidin-2-yl)-3-(methylsulfinyl)-1H-indol-6-yl)(morpholino)methanone] was tested, and the inhibition at 1 µM was 95%. CCOc1ccc(F)c(-c2cnc(-n3cc([S+](C)[O-])c4ccc(C(=O)N5CCOCC5)cc43)nc2)c1 (stereo not shown) [Example 261, (1-(5-(5-Ethoxy-2-fluorophenyl)pyrimidin-2-yl)-3-(methylsulfinyl)-1H-indol-6-yl)(morpholino)methanone] was tested, and the inhibition at 1 µM was 55%. Compound C[S+]([O-])c1cn(-c2ncc(-c3ccc4c(c3)OCO4)cn2)c2cc(C(=O)N3CCOCC3)ccc12 (stereo not shown) [Example 262, (1-(5-(Benzo[d][1,3]dioxol-5-yl)pyrimidin-2-yl)-3-(methylsulfinyl)-1H-indol-6-yl)(morpholino)methanone] has an inhibition at 1 µM of 70%.

Same assay, conditions: test concentration 10 μM (marked in cell), 10 µM
For CC(O)c1ccc(F)c(-c2cnc(-n3cc(S(C)(=O)=O)c4ccc(C(=O)N5CCOCC5)cc43)nc2)c1 (single isomer, unassigned) [Example 345, (1-(5-(2-Fluoro-5-(1-hydroxyethyl)phenyl)pyrimidin-2-yl)-3-(methylsulfonyl)-1H-indol-6-yl)(morpholino)methanone], the “Inhibition in % (inhibition of PDE4B)” value was 95 (10 μM) %.

Same assay, conditions: test concentration 10 μM (marked in cell), read-out: Inhibition in % (inhibition of PDE4B)
CN(CC(N)=O)C(=O)c1ccc2c([S+](C)[O-])cn(-c3ncc(-c4cc(C5CC5)ccn4)cn3)c2c1 (single isomer, unassigned) [Example 333, N-(2-Amino-2-oxoethyl)-1-(5-(4-cyclopropylpyridin-2-yl)pyrimidin-2-yl)-N-methyl-3-(methylsulfinyl)-1H-indole-6-carboxamide] was tested, and the inhibition at 10 µM was 87%. With CN(CC(N)=O)C(=O)c1ccc2c([S+](C)[O-])cn(-c3ncc(-c4cc(C(C)(C)O)ccc4F)cn3)c2c1 (single isomer, unassigned) [Example 334, N-(2-Amino-2-oxoethyl)-1-(5-(2-fluoro-5-(2-hydroxypropan-2-yl)phenyl)pyrimidin-2-yl)-N-methyl-3-(methylsulfinyl)-1H-indole-6-carboxamide] the inhibition at 10 µM was 99%. For CN(CC(N)=O)C(=O)c1ccc2c([S+](C)[O-])cn(-c3ncc(-c4cc(C5CC5)ccc4F)cn3)c2c1 (single isomer, unassigned) [Example 335, N-(2-Amino-2-oxoethyl)-1-(5-(5-cyclopropyl-2-fluorophenyl)pyrimidin-2-yl)-N-methyl-3-(methylsulfinyl)-1H-indole-6-carboxamide], the inhibition at 10 µM was 100%. CC(O)c1ccc(F)c(-c2cnc(-n3cc(S(C)(=O)=O)c4ccc(C(=O)N5CCOCC5)cc43)nc2)c1 (single isomer, unassigned) [Example 344, (1-(5-(2-Fluoro-5-(1-hydroxyethyl)phenyl)pyrimidin-2-yl)-3-(methylsulfonyl)-1H-indol-6-yl)(morpholino)methanone] gave an inhibition at 10 µM of 96%.
